Data from patent US11708367B2, “Compounds for the treatment of kinase-dependent disorders” (Exelixis, Inc., priority 2018, dated 2023).

How the values were obtained:
Met = Met (Homo sapiens (Human), UniProt P08581); assay: Human Met kinase assay (33P radiometric, KinaseProfiler); format: biochemical; details: 10 μM ATP, read-out: c-Met IC50
Mer = Mer (Homo sapiens (Human), UniProt Q12866); assay: Mer autophosphorylation ELISA in transient transfected 293A cells; format: cell-based; details: cellular, MERTK-transfected 293A cells, phospho-Mer ELISA
Sequence of Mer (Q12866 21-999): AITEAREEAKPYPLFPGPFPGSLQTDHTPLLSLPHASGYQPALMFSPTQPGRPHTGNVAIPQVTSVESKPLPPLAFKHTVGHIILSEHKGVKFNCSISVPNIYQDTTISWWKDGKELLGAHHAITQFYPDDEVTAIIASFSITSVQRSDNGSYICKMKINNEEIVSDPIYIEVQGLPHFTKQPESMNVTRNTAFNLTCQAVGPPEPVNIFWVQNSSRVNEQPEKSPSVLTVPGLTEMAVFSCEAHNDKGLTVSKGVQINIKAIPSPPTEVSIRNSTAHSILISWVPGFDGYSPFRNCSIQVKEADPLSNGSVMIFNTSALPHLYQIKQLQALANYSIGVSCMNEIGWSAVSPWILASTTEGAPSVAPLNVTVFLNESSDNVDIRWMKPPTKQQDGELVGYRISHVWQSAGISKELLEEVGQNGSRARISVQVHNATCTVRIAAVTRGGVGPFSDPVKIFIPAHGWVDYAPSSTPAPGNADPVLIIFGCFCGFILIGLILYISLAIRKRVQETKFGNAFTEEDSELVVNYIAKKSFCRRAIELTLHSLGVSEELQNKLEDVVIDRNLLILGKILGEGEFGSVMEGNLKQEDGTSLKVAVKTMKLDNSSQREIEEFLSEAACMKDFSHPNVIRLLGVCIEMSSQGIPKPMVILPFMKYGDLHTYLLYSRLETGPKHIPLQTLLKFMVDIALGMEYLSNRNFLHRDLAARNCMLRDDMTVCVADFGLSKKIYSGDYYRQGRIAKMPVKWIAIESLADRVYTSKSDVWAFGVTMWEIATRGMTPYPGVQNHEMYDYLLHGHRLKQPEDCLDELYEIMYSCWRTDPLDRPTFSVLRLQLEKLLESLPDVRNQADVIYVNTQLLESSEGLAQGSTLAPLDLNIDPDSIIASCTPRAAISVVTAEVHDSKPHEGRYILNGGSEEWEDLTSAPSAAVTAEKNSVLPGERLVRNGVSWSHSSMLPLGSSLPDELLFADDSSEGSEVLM

KDR = KDR (Homo sapiens (Human), UniProt P35968); assay: KDR autophosphorylation ELISA in HUVEC cells; format: cell-based; details: cellular, VEGF165-stimulated, phospho-KDR ELISA
Sequence of KDR (P35968 20-1356): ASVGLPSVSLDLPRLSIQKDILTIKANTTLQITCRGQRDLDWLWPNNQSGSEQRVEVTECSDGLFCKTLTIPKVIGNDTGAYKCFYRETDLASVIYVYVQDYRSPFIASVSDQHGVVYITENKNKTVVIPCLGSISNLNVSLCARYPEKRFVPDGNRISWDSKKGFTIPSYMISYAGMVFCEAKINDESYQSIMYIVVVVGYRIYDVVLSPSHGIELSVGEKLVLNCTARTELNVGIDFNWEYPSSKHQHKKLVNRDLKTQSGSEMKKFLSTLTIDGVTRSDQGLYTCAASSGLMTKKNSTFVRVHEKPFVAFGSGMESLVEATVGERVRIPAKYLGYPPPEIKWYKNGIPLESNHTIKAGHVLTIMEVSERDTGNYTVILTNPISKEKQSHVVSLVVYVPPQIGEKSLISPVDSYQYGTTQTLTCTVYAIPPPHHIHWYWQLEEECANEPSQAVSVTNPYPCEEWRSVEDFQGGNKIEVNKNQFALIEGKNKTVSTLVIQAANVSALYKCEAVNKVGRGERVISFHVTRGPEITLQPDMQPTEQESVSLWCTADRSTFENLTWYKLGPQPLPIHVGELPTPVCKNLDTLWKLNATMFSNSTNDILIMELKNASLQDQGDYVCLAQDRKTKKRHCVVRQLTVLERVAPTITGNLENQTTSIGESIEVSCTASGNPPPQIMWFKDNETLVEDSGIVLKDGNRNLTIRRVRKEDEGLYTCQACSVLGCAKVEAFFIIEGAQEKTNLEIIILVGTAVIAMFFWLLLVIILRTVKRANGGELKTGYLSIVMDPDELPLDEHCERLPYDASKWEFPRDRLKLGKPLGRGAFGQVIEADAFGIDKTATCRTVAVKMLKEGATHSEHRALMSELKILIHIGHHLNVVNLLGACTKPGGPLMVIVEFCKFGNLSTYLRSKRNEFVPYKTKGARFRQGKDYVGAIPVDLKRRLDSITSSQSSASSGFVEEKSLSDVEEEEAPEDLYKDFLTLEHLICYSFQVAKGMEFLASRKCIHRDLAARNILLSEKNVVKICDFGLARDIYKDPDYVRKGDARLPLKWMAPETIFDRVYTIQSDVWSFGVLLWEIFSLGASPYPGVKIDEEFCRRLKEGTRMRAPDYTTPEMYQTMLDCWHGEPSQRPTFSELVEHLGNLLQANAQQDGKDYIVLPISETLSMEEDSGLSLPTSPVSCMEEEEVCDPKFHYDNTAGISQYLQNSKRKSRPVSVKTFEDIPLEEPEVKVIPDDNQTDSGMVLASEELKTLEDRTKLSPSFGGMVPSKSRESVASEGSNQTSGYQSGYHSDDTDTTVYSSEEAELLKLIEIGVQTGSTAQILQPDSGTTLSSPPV
Method in brief: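 Serum-starved (24 h) HUVECs were pre-treated with compound (8-point dose curve, 0.3% DMSO final) for 1 h, then stimulated with 100 ng/mL human VEGF165 for 5 min. Lysate phospho-KDR was quantified by ELISA against a phospho-KDR standard. IC50 came from a 4-parameter logistic fit, normalized to stimulated-DMSO (100%) and unstimulated (0%) controls.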

- IC50 (Met): 10 to 100 nM
- IC50 (Mer): 10 to 100 nM
- IC50 (KDR): 100 to 300 nM
SMILES: COc1cc2ncnc(Oc3ccc(NC(=O)C4(C(=O)Nc5ccc(F)cc5)CC4)cc3)c2cc1C(=O)NCCN1CCCC1 [Compound 118, 1-N′-(4-fluorophenyl)-1-N-[4-[7-methoxy-6-(2-pyrrolidin-1-ylethyl-carbamoyl)quinazolin-4-yl]oxyphenyl]cyclopropane-1,1-dicarboxamide]
